Where two headings read alike, the source gives them in different places.
Assays:
α-glucosidase = conditions: cited from earlier work
protein glycation = system: protein glycation; parameters: method as in PMID 23270944; conditions: at concentration of 3 µg/mL; ref [83]; cited from earlier work
pancreatic lipase [1] = target: T1, pancreatic lipase (Sus scrofa, UniProt P00591); assay: pancreatic lipase enzyme inhibition assay (4MUFO substrate); format: biochemical, porcine; conditions: mean ± SD, n=3
T1 construct: purchased Sigma Aldrich, Japan
T1 sequence (P00591 1-450): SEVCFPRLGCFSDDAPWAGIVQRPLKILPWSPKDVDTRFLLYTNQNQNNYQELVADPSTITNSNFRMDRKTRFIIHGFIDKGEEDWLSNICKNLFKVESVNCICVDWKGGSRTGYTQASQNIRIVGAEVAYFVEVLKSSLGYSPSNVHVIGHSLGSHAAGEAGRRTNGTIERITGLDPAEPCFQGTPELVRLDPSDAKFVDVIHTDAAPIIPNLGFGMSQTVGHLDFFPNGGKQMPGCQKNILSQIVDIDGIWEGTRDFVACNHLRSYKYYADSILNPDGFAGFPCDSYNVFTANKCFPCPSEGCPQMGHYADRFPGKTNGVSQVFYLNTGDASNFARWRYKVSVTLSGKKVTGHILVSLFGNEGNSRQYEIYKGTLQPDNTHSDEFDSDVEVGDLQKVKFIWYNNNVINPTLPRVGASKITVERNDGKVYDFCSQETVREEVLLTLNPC
Text: 2, 2-Diphenyl-1-picrylhydrazyl (DPPH), pancreatic lipase enzyme from porcine animal, tyrosinase enzyme from mushroom plant and α-glucosidase enzyme from Saccharomyces cerevisiae fungi were purchased from the Sigma Aldrich, Japan. Arbutin and aluminum chloride (III) were obtained from Nacalai Tesque, Japan. Cetilistat was purchased from Combi-Blocks, United States of America. Acarbose and Trolox were obtained from Wako Pure Chemical Industries, Japan. Methanol was purchased from Al-Nasr Pharmaceutical Company, Egypt.
The anti-hyperlipidemic potential of yellow flag extracts was conducted by Bitou et al. method with minor alterations. In an ELISA microplate reader, pancreatic lipase solution (50 μL at pH 7.4) in phosphate buffer (100 μg/mL, 0.2 M) was added together with 50 μL of I. pseudacorus extract at a concentration ranging from 1.56 to 100 μg/mL. After 10 min of incubation at 25 °C. […] The quantity of 4-methylumbelliferone liberated by the lipase enzyme was measured fluorometrically using a spectrophotometer at 355 nm excitation wavelength and 460 nm emission wavelength. […] The percentage of lipase inhibition was calculated using the following equation: [1- As/Ac ]*100], where As and Ac symbolize I. pseudacorus extract and […] absorbances. […]
DPPH and enzyme inhibitory assays were carried out in triplicates, and the values were expressed as mean ± standard deviation. […]

[2] = parameters: method as in PMID 26799817; conditions: compared to trolox; ref [80]; cited from earlier work
[3] = cited from earlier work; for antioxidant activity IC50: compared to propyl gallate, ref [78]; for free radical scavenging activity IC50: compared to trolox, ref [79]
rats = conditions: pre-administration in rats (5 and 10 mg/kg); ref [91]; cited from earlier work
[4] = system: Chinese hamster lung fibroblast (V79-4) cells; parameters: method as in PMID 16102749; conditions: V79-4 cells exposed to hydrogen peroxide; ref [77]; cited from earlier work
[5] = DPPH radical scavenging assay; conditions: mean ± SD, n=3
Description: The antioxidant activity of the yellow flag extracts was determined using DPPH scavenging assay in accordance with Shimamura et al. with minimal adjustments. The reaction mixture in 96 well culture plate contained. […] After 20 min of incubation of the reaction mixture at 25 °C. The degree of bleaching of the violet tint of DPPH depends on the ability of I. pseudacorus extracts for hydrogen/electron donation and was measured spectrophotometrically at 520 nm of wavelength. Noteworthy, trolox (an artificial anti-oxidant agent) was used as a positive control. The percentage of antioxidant capacity of the yellow flag extracts equals to [ Ac-As/Ac ] *100 Where Ac, As represents the control absorbance and the I. pseudacorus extract absorbance, respectively. The graph was plotted and the inhibitory concentration 50 (IC50) value was calculated. DPPH and enzyme inhibitory assays were carried out in triplicates, and the values were expressed as mean ± standard deviation. For the determination of the in vitro antioxidant, tyrosinase, lipase, and α-glucosidase inhibition potential, the (IC50) was estimated from the graph plots of the dose–response curves at each sample concentration by GraphPad Prism software (San Diego, CA, USA). The IC50 was defined as the concentration of the sample required to inhibit 50% of the tested enzyme activity.

pancreatic lipase [6] = conditions: cited from earlier work
[7] = compared with acarbose, ref [6]

Compound: COc1ccccc1-c1coc2cc(O)c(OC)c(O)c2c1=O [5,7-Dihydroxy-2',6-dimethoxyisoflavone]
- α-glucosidase IC50 (α-glucosidase; compared to acarbose, ref [83]): 0.321 ± 0.008 µg/mL
- protein glycation % inhibition (protein glycation): 70.41%

Compound: CCCCCCCCCCCCCCCCOc1nc2ccc(C)cc2c(=O)o1 [Cetilistat]
- IC50 (pancreatic lipase [1]): 18.6 µM

Compound: O=c1c(-c2ccc(O)cc2)coc2cc(O)cc(O)c12 [Genistein (30), Genistein]
- DPPH IC50 [2]: 1.89 ± 0.16 µg/mL
- α-glucosidase IC50 (α-glucosidase; compared with acarbose, ref [85]): 40.09 ± 0.94 µg/mL

Compound: COc1ccc(-c2coc3cc(O)c(OC)c(O)c3c2=O)cc1 [Irisolidone (34), Irisolidone]
- antioxidant activity IC50 [3]: 12.62 µg/mL

Compound: O=c1cc(-c2ccc(O)cc2)oc2cc(O)c([C@@H]3O[C@H](CO)[C@@H](O)[C@H](O)[C@H]3O)c(O)c12 [Isovitexin (43), Isovitexin]
- α-glucosidase IC50 (α-glucosidase; [7]): 6.7 µg/mL

Compound: O=c1c(O)c(-c2ccc(O)c(O)c2)oc2cc(O)cc(O)c12 [Quercetin (38), Quercetin]
- rat fat absorption (rats): remarkable decrease in rat fat absorption

Compound: COc1c(O)cc2occ(-c3ccc(O)cc3)c(=O)c2c1O [Tectorigenin (31), Tectorigenin]
- intracellular free radical scavenging and lipid peroxidation [4]: scavenged intracellular free radicals and reduced lipid peroxidation

Compound: Cc1c(C)c2c(c(C)c1O)CCC(C)(C(=O)O)O2 (stereo not drawn) [Trolox, reference compound]
- DPPH IC50 [5]: 14.59 µg/mL
- free radical scavenging activity IC50 [3]: 17.3 µg/mL

Compound: O=c1cc(-c2ccc(O)cc2)oc2c([C@@H]3O[C@H](CO)[C@@H](O)[C@H](O)[C@H]3O)c(O)cc(O)c12 [Vitexin (42), Vitexin]
- free radical scavenging activity IC50 [3]: 31.4 µg/mL
- α-glucosidase IC50 (α-glucosidase; [7]): 4.1 µg/mL

Compound: CCCOC(=O)c1cc(O)c(O)c(O)c1 [propyl gallate, reference compound]
- antioxidant activity IC50 [3]: 6.72 µg/mL

Compound: C[C@@H]1O[C@@H](OC[C@H]2O[C@@H](Oc3c(-c4ccc(O)c(O)c4)oc4cc(O)cc(O)c4c3=O)[C@H](O)[C@@H](O)[C@@H]2O)[C@H](O)[C@H](O)[C@H]1O [rutin, reference compound]
- protein glycation % inhibition (protein glycation): 82.50%

Compound: Kaempferol-O-deoxyhexosyl hexoside (Kaempferol-O-rutinoside) [Compound 21]
- pancreatic lipase IC50 (pancreatic lipase [6]; compared to orlistat, ref [90]): 1.7 ± 0.30 µg/mL

Compound: Schaftoside [Schaftoside (18)]
- pancreatic lipase % inhibition (pancreatic lipase [6]; at a concentration of 250 μg/mL, ref [88]): 95.5%
- pancreatic lipase IC50 (pancreatic lipase [6]; compared with orlistat, ref [88]): 130 µg/mL

Source: publication PMC10063562, “Metabolic profiling, antioxidant, and enzyme inhibition potential of Iris pseudacorus L. from Egypt and Japan: A comparative study” (Scientific Reports, 2023)
